Where “and” joins values, the source holds several entries; their conditions need not be identical. Equal entries are not always repeated. Inconclusive results and toxic doses are left out.
System: L1210 leukemia ip in BDF1 mice, survival T/C
Experiment: NCI In Vivo Anticancer Drug Screen. Data for tumor model L1210 Leukemia (intraperitoneal) in B6D2F1 (BDF1) mice
Settings: endpoint: mean survival time, higher = longer survival
Outline: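 Ratio derived from survival: compound-dosed mice over vehicle-dosed mice, all bearing a transplantable tumor.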

[1] = dose: 100.0 mg/kg/injection, schedule: Q04DX002 (ip), vehicle: Klucel (hydroxypropylcellulose) (HPC)
[2] = dose: 100.0 mg/kg/injection, schedule: Q01DX009 (ip), vehicle: saline with Tween-80
[3] = dose: 100.0 mg/kg/injection, schedule: Q04DX003 (ip), vehicle: saline with Tween-80
[4] = dose: 200.0 mg/kg/injection, schedule: Q01DX009 (ip), vehicle: saline with Tween-80
[5] = dose: 200.0 mg/kg/injection, schedule: Q04DX003 (ip), vehicle: saline with Tween-80
[6] = dose: 400.0 mg/kg/injection, schedule: Q01DX009 (ip), vehicle: saline with Tween-80
[7] = dose: 50.0 mg/kg/injection, schedule: Q01DX009 (ip), vehicle: saline with Tween-80
[8] = dose: 100.0 mg/kg/injection, schedule: Q01DX001 (ip), vehicle: saline
[9] = dose: 100.0 mg/kg/injection, schedule: Q01DX009 (ip), vehicle: Klucel (hydroxypropylcellulose) (HPC)
[10] = dose: 100.0 mg/kg/injection, schedule: Q04DX003 (ip), vehicle: Klucel (hydroxypropylcellulose) (HPC)
[11] = dose: 200.0 mg/kg/injection, schedule: Q01DX009 (ip), vehicle: Klucel (hydroxypropylcellulose) (HPC)
[12] = dose: 200.0 mg/kg/injection, schedule: Q04DX003 (ip), vehicle: Klucel (hydroxypropylcellulose) (HPC)
[13] = dose: 400.0 mg/kg/injection, schedule: Q01DX009 (ip), vehicle: Klucel (hydroxypropylcellulose) (HPC)
[14] = dose: 400.0 mg/kg/injection, schedule: Q04DX003 (ip), vehicle: Klucel (hydroxypropylcellulose) (HPC)
[15] = dose: 100.0 mg/kg/injection, schedule: Q01DX001 (ip), vehicle: acetone
[16] = dose: 200.0 mg/kg/injection, schedule: Q01DX001 (ip), vehicle: acetone
[17] = dose: 400.0 mg/kg/injection, schedule: Q01DX001 (ip), vehicle: acetone

## CSc1nc(Cl)c2ncn(C3C=CC(O)C(CO)O3)c2n1 (stereo not given)
dose: 100.0 mg/kg/injection, schedule: Q01DX005 (ip), vehicle: saline
  T/C: 95 % of control
dose: 200.0 mg/kg/injection, schedule: Q01DX005 (ip), vehicle: saline
  T/C: 92 % of control

## O=P(O)(CCP(=O)(O)c1ccccc1)c1ccccc1
[1]
  T/C: 95 % of control
dose: 200.0 mg/kg/injection, schedule: Q04DX002 (ip), vehicle: Klucel (hydroxypropylcellulose) (HPC)
  T/C: 91 % of control
dose: 400.0 mg/kg/injection, schedule: Q04DX002 (ip), vehicle: Klucel (hydroxypropylcellulose) (HPC)
  T/C: 106 % of control

## CN1C2CC(OC3CCCCO3)C(C2)N1C (stereo not given)
[2]
  T/C: 95 % of control
[3]
  T/C: 94 % of control
dose: 132.0 mg/kg/injection, schedule: Q04DX003 (ip), vehicle: saline with Tween-80
  T/C: 100 % of control
[4]
  T/C: 100 % of control
[5]
  T/C: 102 % of control
dose: 300.0 mg/kg/injection, schedule: Q04DX003 (ip), vehicle: saline with Tween-80
  T/C: 117 % of control
[6]
  T/C: 93 % of control
dose: 400.0 mg/kg/injection, schedule: Q04DX003 (ip), vehicle: saline with Tween-80
  T/C: 102 % of control

## CC1CCC(C(=O)O)(C(=O)NC(N)=O)CC1C (stereo not given)
dose: 100.0 mg/kg/injection, schedule: Q01DX001 (ip), vehicle: steriod suspending solution
  T/C: 93 % of control
dose: 200.0 mg/kg/injection, schedule: Q01DX001 (ip), vehicle: steriod suspending solution
  T/C: 110 % of control
dose: 400.0 mg/kg/injection, schedule: Q01DX001 (ip), vehicle: steriod suspending solution
  T/C: 114 % of control

## N#CC(CC(=O)c1ccccc1)c1ccccc1 (stereo not given)
[2]
  T/C: 97 % of control
[4]
  T/C: 100 % of control
[6]
  T/C: 107 % of control

## C[n+]1cccc(C(=O)N/N=C/C=C/c2ccccc2)c1
[7]
  T/C: 96 % of control
[2]
  T/C: 100 % of control

## CS(=O)(=O)OCCNC[C@@H](O)[C@@H](O)CNCCOS(C)(=O)=O
dose: 0.8 mg/kg/injection, schedule: Q01DX001 (ip), vehicle: saline
  T/C: 101 % of control
dose: 1.4 mg/kg/injection, schedule: Q01DX001 (ip), vehicle: saline
  T/C: 112 % of control and 121 % of control
dose: 2.3 mg/kg/injection, schedule: Q01DX001 (ip), vehicle: saline
  T/C: 112 % of control and 123 % of control
dose: 6.5 mg/kg/injection, schedule: Q01DX001 (ip), vehicle: saline
  T/C: 122 % of control
dose: 18.0 mg/kg/injection, schedule: Q01DX001 (ip), vehicle: saline
  T/C: 161 % of control
dose: 30.0 mg/kg/injection, schedule: Q01DX001 (ip), vehicle: saline
  T/C: 151 % of control and 186 % of control
dose: 50.0 mg/kg/injection, schedule: Q01DX001 (ip), vehicle: saline
  T/C: 207 % of control
[8]
  T/C: 108 % of control

## OCC(O)C(O)C(O)/C=N\Nc1ccc(Br)cc1 (stereo not given)
dose: 50.0 mg/kg/injection, schedule: Q04DX002 (ip), vehicle: saline with Tween-80
  T/C: 93 % of control
dose: 100.0 mg/kg/injection, schedule: Q04DX002 (ip), vehicle: saline with Tween-80
  T/C: 95 % of control
dose: 200.0 mg/kg/injection, schedule: Q04DX002 (ip), vehicle: saline with Tween-80
  T/C: 87 % of control

## c1ccc2c(c1)ccc1oc3ccccc3c12
[8]
  T/C: 101 % of control
dose: 200.0 mg/kg/injection, schedule: Q01DX001 (ip), vehicle: saline
  T/C: 95 % of control
dose: 400.0 mg/kg/injection, schedule: Q01DX001 (ip), vehicle: saline
  T/C: 98 % of control

## OCc1cc2ccccc2cc1O
[9]
  T/C: 97 % of control
[10]
  T/C: 97 % of control
[11]
  T/C: 106 % of control
[12]
  T/C: 94 % of control
[13]
  T/C: 108 % of control
[14]
  T/C: 89 % of control

## Cc1ccc(NCc2ccc(N(C)C)cc2)cc1
[10]
  T/C: 99 % of control
[12]
  T/C: 91 % of control
[14]
  T/C: 93 % of control

## CCCSC(=O)N(CC)C(=NCC)c1ccc(NC(=O)c2ccc(C(=O)Nc3ccc(C(=NCC)N(CC)C(=O)SCCC)cc3)cc2)cc1
dose: 2.25 mg/kg/injection, schedule: Q01DX015 (ip), vehicle: methylcellulose (MC)
  T/C: 104 % of control
dose: 4.5 mg/kg/injection, schedule: Q01DX015 (ip), vehicle: methylcellulose (MC)
  T/C: 100 % of control
dose: 9.0 mg/kg/injection, schedule: Q01DX015 (ip), vehicle: methylcellulose (MC)
  T/C: 100 % of control
dose: 18.0 mg/kg/injection, schedule: Q01DX015 (ip), vehicle: methylcellulose (MC)
  T/C: 102 % of control
dose: 75.0 mg/kg/injection, schedule: Q01DX015 (ip), vehicle: methylcellulose (MC)
  T/C: 90 % of control
dose: 150.0 mg/kg/injection, schedule: Q01DX015 (ip), vehicle: methylcellulose (MC)
  T/C: 86 % of control

## NC(=O)C(CCC(=O)O)NC(=O)OCc1ccccc1 (stereo not given)
dose: 25.0 mg/kg/injection, schedule: Q04DX002 (ip), vehicle: Klucel (hydroxypropylcellulose) (HPC)
  T/C: 100 % of control
dose: 50.0 mg/kg/injection, schedule: Q04DX002 (ip), vehicle: Klucel (hydroxypropylcellulose) (HPC)
  T/C: 92 % of control
[1]
  T/C: 100 % of control

## O=C(CCCCl)NCc1ccccc1[N+](=O)[O-]
[9]
  T/C: 96 % of control
[10]
  T/C: 101 % of control
[11]
  T/C: 90 % of control
[12]
  T/C: 93 % of control
[13]
  T/C: 91 % of control
[14]
  T/C: 97 % of control

## O=C(CNC(=O)Nc1cccc(Cl)c1Cl)N/N=C/c1cccc([N+](=O)[O-])c1
[7]
  T/C: 90 % of control
[2]
  T/C: 96 % of control
[4]
  T/C: 90 % of control

## c1ccc2[nH]c(-c3ccc(N=Nc4ccc(-c5nc6ccccc6[nH]5)cc4)cc3)nc2c1
dose: 15.0 mg/kg/injection, schedule: Q01DX Z (ip), vehicle: other
  T/C: 100 % of control
dose: 30.0 mg/kg/injection, schedule: Q01DX Z (ip), vehicle: other
  T/C: 97 % of control
dose: 60.0 mg/kg/injection, schedule: Q01DX Z (ip), vehicle: other
  T/C: 105 % of control
dose: 120.0 mg/kg/injection, schedule: Q01DX Z (ip), vehicle: other
  T/C: 96 % of control
dose: 180.0 mg/kg/injection, schedule: Q01DX Z (ip), vehicle: carboxymethylcellulose (CMC)
  T/C: 108 % of control
dose: 270.0 mg/kg/injection, schedule: Q01DX Z (ip), vehicle: carboxymethylcellulose (CMC)
  T/C: 101 % of control

## OC(c1cc2c3c(c1)CCCN3CCC2)(C(F)(F)F)C(F)(F)F
[3]
  T/C: 92 % of control
[5]
  T/C: 96 % of control

## COc1ccc(CCCCO)cc1
[15]
  T/C: 96 % of control
[16]
  T/C: 102 % of control
[17]
  T/C: 86 % of control

## O=C(c1ccccc1)c1ccc(O)cc1
[9]
  T/C: 93 % of control
[10]
  T/C: 103 % of control
[11]
  T/C: 93 % of control
[12]
  T/C: 100 % of control
[13]
  T/C: 100 % of control
[14]
  T/C: 103 % of control

## CC(C(=O)O)N(C)C(=O)OCc1ccccc1 (stereo not given)
[15]
  T/C: 103 % of control
dose: 100.0 mg/kg/injection, schedule: Q04DX003 (ip), vehicle: saline
  T/C: 105 % of control
[16]
  T/C: 101 % of control
dose: 200.0 mg/kg/injection, schedule: Q04DX003 (ip), vehicle: saline
  T/C: 90 % of control
[17]
  T/C: 96 % of control
dose: 400.0 mg/kg/injection, schedule: Q04DX003 (ip), vehicle: saline
  T/C: 92 % of control

## OC(c1ccccc1)(c1ccccc1)C(F)(F)C(F)(F)C(F)(F)F
dose: 222.0 mg/kg/injection, schedule: Q01DX Z (ip), vehicle: methylcellulose (MC)
  T/C: 89 % of control
dose: 333.0 mg/kg/injection, schedule: Q01DX Z (ip), vehicle: methylcellulose (MC)
  T/C: 96 % of control

## C#CCNc1ccccc1
dose: 100.0 mg/kg/injection, schedule: Q04DX002 (sc), vehicle: olive oil, sesame oil, peanut oil
  T/C: 102 % of control
dose: 200.0 mg/kg/injection, schedule: Q04DX002 (sc), vehicle: olive oil, sesame oil, peanut oil
  T/C: 102 % of control
dose: 400.0 mg/kg/injection, schedule: Q04DX002 (sc), vehicle: olive oil, sesame oil, peanut oil
  T/C: 109 % of control

## CCOP(=O)(OCC)C1=C(P(=O)(OCC)OCC)CCCC1
dose: 9.5 mg/kg/injection, schedule: Q01DX001 (ip), vehicle: other
  T/C: 103 % of control
dose: 19.0 mg/kg/injection, schedule: Q01DX001 (ip), vehicle: other
  T/C: 105 % of control
dose: 38.0 mg/kg/injection, schedule: Q01DX001 (ip), vehicle: other
  T/C: 95 % of control

## Cc1[nH]c2ccccc2c1C
[9]
  T/C: 104 % of control
[11]
  T/C: 87 % of control

From PubChem BioAssay AID248 (DTP/NCI, 2004)
